According to patent US8835124B2, “Method for treating cancer with agents that bind phosphorylated CDC27” (The Nemours Foundation, priority 2011, dated 2014):

Legend:
[1] = system: DAOY medulloblastoma cells; assay: Cell cycle analysis by flow cytometry after release from thymidine/nocodazole mitotic block; assay type: cell-based, human; conditions: for cells remained in G2/M: 10 μM curcumin; for G0/G1 / G2/M / S / Sub G0/G1: DAOY released from thymidine/nocodazole block
Method: DNA was stained with 100 μg/ml propidium iodide (PI) in hypotonic citrate buffer with 20 μg/ml ribonuclease A. Stained nuclei were analyzed for DNA-PI fluorescence using an Accuri C6 flow cytometer (Accuri Cytometers Inc., Ann Arbor, Mich.). Resulting DNA distributions for sub G0/G1, G0/G1, S and G2/M phase of the cell cycle were analyzed with CFlow plus software (Accuri Cytometers Inc).
(§1) For analysis of cell cycle profiles after mitotic block, cells were synchronized with 2 mM thymidine for 24 hours. The block was released for 3 hours and cells were arrested in prometaphase with 100 nM nocodazole for 12 hours. For G1/S arrest, cells were synchronized for 18 hours with 2 mM thymidine, released for 9 hours, followed by a second thymidine arrest for 18 hours. The block was then released in the presence of DMSO or curcumin as indicated and the cells were processed as described above.
as §1, with “above. […] The data from these cell cycle studies are the mean±SEM of three independent experiments. […]” for “above.”

[2] = system: APC2, p55Cdc20, cyclins A and E, APC7, APC8; assay: Immunoblotting of APC/C subunits and other cell cycle related proteins in DAOY cells; assay type: cell-based, human; conditions: control vs curcumin-treated DAOY cells, immunoblot
Method: (§2) Cell lysates were prepared in a buffer containing 20 mM Tris (pH 7.5), 150 mM NaCl, 1 mM EDTA, 1 mM EGTA, 0.1% Triton X-100, 2.5 mM sodium pyrophosphate, 1 mM β-glycerol phosphate, 1 mM sodium vanadate, 1 mM phenylmethylsulfonyl fluoride and 5 μg/ml of antipapain, leupeptin and pepstatin (protease inhibitor cocktail). Protein concentrations were determined by the Dc protein assay (Bio-Rad, Hercules, Calif.). Equal amounts of protein were resolved by SDS-PAGE and transferred to nitrocellulose. The membranes were blocked in 5% non-fat milk in Tris-buffered saline with 0.1% […] (TBST). Primary antibodies diluted in 5% bovine serum albumin/TBST were incubated overnight at 4° C. and HRP-conjugated secondary antibodies in 5% non-fat milk/TBST for 2 hours at room temperature. Protein bands were visualized by Enhanced Chemiluminescence Plus (GE Healthcare, Piscataway, N.J.).
Cell lysates were prepared in a buffer containing 20 mM Iris (pH 7.5), 150 mM NaCl, 1 mM EDTA, 1 mM EGTA, 0.1% Triton X-100, 2.5 mM sodium pyrophosphate, 1 mM β-glycerol phosphate, 1 mM sodium vanadate, 1 mM phenylmethylsulfonyl fluoride and 5 μg/ml of antipapain, leupeptin and pepstatin (protease inhibitor cocktail). Protein concentrations were determined by the Dc protein assay (Bio-Rad, Hercules, Calif.). Equal amounts of protein were resolved by SDS-PAGE and transferred to nitrocellulose. […]

Cdc27 = biological target: T1, Cdc27 (Mus musculus, UniProt A2A6Q5); assay: Cdc27 immunoblot of medulloblastoma samples from treated Smo/Smo mice; assay type: in vivo; conditions: curcumin-treated vs corn oil control mice
T1 construct: from tissue; host or cells: medulloblastoma tumours of Smo/Smo mice
T1 sequence (A2A6Q5 whole entry): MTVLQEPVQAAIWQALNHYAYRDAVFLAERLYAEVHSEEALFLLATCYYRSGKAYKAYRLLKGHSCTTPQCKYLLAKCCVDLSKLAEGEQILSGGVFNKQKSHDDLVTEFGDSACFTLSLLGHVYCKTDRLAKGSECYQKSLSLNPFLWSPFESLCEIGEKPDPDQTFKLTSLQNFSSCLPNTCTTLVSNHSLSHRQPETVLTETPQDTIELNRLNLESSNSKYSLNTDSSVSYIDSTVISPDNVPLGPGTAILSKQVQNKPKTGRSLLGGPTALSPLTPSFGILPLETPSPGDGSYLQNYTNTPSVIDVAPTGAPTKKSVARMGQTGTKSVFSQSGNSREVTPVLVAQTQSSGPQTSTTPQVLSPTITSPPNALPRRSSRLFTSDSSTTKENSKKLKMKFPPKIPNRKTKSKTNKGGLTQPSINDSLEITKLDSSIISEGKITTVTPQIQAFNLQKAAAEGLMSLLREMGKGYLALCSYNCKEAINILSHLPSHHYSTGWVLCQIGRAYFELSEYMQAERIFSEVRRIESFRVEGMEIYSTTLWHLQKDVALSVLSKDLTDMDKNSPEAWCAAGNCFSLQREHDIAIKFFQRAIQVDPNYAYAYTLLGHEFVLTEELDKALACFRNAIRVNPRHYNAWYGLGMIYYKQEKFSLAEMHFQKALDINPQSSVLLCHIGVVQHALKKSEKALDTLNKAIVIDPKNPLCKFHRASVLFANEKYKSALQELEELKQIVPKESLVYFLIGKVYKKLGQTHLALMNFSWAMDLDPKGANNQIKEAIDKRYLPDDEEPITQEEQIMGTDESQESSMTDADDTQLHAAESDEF
Method: Tumors of control and curcumin-treated mice were harvested exactly as described (Lee et al., 2011, BMC Cancer 11:144). Animal experiments were performed according to the NIH Guide for the Care and Use of Experimental Animals and approved by our Institutional Animal Care and Use Committee.
Cdc27 levels in the Smo/Smo mouse tumors were determined by immunoblot of Cdc27. Tubulin is shown for equal loading. The Cdc27 levels were reduced (FIG. 4) when compared with control mice.

[3] = system: Cdc27, cyclin B1, securin, cyclin D1, APC2, p55Cdc20; assay: Immunoblotting of DAOY cells released from mitotic block; assay type: cell-based, human
Method: as §2

medulloblastoma = medulloblastoma in vivo model; cited from earlier work
[4] = biological target: T2, cystic fibrosis transmembrane conductance regulator (CFTR) (Homo sapiens, UniProt P13569); conditions: in microsomes and in intact cells; cited from earlier work
T2 construct: host or cells: microsomes and intact cells (not further described)
T2 sequence (P13569 whole entry, species assumed): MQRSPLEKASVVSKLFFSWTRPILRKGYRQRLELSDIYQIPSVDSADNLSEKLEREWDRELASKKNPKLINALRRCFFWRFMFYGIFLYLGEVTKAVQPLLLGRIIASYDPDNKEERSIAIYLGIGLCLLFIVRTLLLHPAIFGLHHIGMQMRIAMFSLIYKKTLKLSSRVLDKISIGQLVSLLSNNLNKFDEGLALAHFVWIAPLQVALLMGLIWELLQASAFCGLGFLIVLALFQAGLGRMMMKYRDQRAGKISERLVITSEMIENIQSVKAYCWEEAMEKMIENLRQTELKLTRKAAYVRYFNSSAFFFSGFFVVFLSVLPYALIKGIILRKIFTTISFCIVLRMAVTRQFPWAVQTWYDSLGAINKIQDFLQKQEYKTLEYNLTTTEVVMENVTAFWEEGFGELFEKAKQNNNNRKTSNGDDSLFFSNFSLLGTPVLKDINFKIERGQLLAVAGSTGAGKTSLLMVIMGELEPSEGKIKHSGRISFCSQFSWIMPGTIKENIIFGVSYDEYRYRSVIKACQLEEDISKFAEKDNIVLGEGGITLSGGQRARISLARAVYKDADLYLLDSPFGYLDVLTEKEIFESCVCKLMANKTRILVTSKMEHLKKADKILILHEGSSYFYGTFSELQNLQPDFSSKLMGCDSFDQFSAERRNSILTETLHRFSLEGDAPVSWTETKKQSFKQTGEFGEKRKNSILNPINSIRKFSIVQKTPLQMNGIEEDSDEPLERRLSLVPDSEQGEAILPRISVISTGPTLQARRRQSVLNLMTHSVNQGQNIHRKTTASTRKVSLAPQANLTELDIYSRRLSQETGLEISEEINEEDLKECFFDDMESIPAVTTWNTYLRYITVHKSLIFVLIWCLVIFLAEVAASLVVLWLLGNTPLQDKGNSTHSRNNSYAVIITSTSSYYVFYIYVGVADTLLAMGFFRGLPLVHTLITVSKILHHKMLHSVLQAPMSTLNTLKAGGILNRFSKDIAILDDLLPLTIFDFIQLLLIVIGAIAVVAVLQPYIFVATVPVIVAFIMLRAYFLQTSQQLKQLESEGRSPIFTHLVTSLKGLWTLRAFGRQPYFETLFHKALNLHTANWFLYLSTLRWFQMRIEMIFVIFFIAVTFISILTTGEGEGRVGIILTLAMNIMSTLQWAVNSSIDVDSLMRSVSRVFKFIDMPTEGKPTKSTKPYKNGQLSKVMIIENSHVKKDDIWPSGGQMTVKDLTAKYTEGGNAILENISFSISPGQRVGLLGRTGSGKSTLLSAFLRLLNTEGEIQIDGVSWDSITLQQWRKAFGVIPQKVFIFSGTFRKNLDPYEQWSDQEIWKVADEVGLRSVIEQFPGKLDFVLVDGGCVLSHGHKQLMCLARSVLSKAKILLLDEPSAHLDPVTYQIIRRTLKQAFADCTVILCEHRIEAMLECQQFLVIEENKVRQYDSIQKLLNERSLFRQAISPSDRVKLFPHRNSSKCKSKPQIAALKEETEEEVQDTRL

## COc1cc(/C=C/C(=O)CC(=O)/C=C/c2ccc(O)c(OC)c2)ccc1O [Curcumin, (E,E)-1,7-bis(4-hydroxy-3-methoxyphenyl)-1,6-heptadiene-3,5-dion]
[1]; six hours after release from mitotic block
  cells remained in G2/M: 47.7%
[1]; two hours after release from mitotic block
  cells remained in G2/M: 91.5%
[1]; 20 μM curcumin, 10 hours of release from mitotic block
  cells found in G2/M: 69.8%
[1]; 20 μM curcumin, after release from mitotic block
  cells in the sub-G0/G1 fraction: a significant amount of cells was in the sub-G0/G1 fraction
[1]; 10 μM Curcumin, 0 Hr
  G0/G1: 7.38 ± 3.12%
  G2/M: 70.15 ± 0.75%
  S: 17.68 ± 4.78%
  Sub G0/G1: 4.80 ± 2.40%
[1]; 10 μM Curcumin, 2 Hr
  G0/G1: 16.87 ± 4.87%
  G2/M: 64.16 ± 7.74%
  S: 10.76 ± 0.04%
  Sub G0/G1: 8.21 ± 2.91%
[1]; 10 μM Curcumin, 4 Hr
  G0/G1: 35.54 ± 1.94%
  G2/M: 46.47 ± 0.17%
  S: 9.47 ± 2.03%
  Sub G0/G1: 8.57 ± 0.13%
[1]; 10 μM Curcumin, 6 Hr
  G0/G1: 43.93 ± 3.13%
  G2/M: 33.43 ± 5.27%
  S: 12.07 ± 0.53%
  Sub G0/G1: 10.57 ± 2.67%
[1]; 10 μM Curcumin, 8 Hr
  G0/G1: 47.60 ± 4.00%
  G2/M: 26.86 ± 6.24%
  S: 15.54 ± 0.56%
  Sub G0/G1: 9.99 ± 2.79%
[1]; 10 μM Curcumin, 10 Hr
  G0/G1: 48.68 ± 8.18%
  G2/M: 22.65 ± 11.35%
  S: 19.88 ± 0.32%
  Sub G0/G1: 8.85 ± 3.45%
[1]; 20 μM Curcumin, 0 Hr
  G0/G1: 7.38 ± 3.12%
  G2/M: 70.15 ± 0.75%
  S: 17.68 ± 4.76%
  Sub G0/G1: 4.80 ± 2.40%
[1]; 20 μM Curcumin, 2 Hr
  G0/G1: 11.51 ± 2.81%
  G2/M: 67.21 ± 5.39%
  S: 13.86 ± 0.34%
  Sub G0/G1: 7.42 ± 2.92%
[1]; 20 μM Curcumin, 4 Hr
  G0/G1: 16.77 ± 1.63%
  G2/M: 65.00 ± 1.30%
  S: 10.77 ± 1.57%
  Sub G0/G1: 7.46 ± 1.36%
[1]; 20 μM Curcumin, 6 Hr
  G0/G1: 22.09 ± 0.81%
  G2/M: 52.27 ± 5.63%
  S: 14.02 ± 2.02%
  Sub G0/G1: 11.67 ± 4.37%
[1]; 20 μM Curcumin, 8 Hr
  G0/G1: 24.20 ± 0.30%
  G2/M: 51.55 ± 9.55%
  S: 13.45 ± 3.65%
  Sub G0/G1: 10.85 ± 5.55%
[1]; 20 μM Curcumin, 10 Hr
  G0/G1: 25.15 ± 0.85%
  G2/M: 48.95 ± 10.95%
  S: 14.22 ± 4.02%
  Sub G0/G1: 11.67 ± 6.07%
[2]
  expression of cyclin A and E: No noticeable changes
  levels of APC2 and p55Cdc20: comparable in control and curcumin-treated cells
Cdc27
  Cdc27 levels in Smo/Smo mouse tumors: reduced
[3]; 20 and 40 μM curcumin vs DMSO
  dephosphorylation of Cdc27 over time after release of the mitotic block: not observed
[3]; 20 and 40 μM curcumin vs control
  decreases in the cyclin B1 and securin levels after release of the mitotic block: not found
[3]; control vs curcumin-treated cells
  levels of APC2, p55Cdc20 or cyclin D1: no significant differences
medulloblastoma
  medulloblastoma growth: can inhibit medulloblastoma growth
[4]
  crosslinking of CFTR polypeptides: can crosslink CFTR polypeptides into SDS-resistant oligomers
